Experimental data published in paper PMC9603864, “Novel Class of Proteasome Inhibitors: In Silico and In Vitro Evaluation of Diverse Chloro(trifluoromethyl)aziridines” (International Journal of Molecular Sciences, 2022).
Read-outs that look alike come from different tables or passages of the source.

Experiments:
Type in all cases: biochemical
[1] = target: T1, 20S proteasome β5 subunit (chymotrypsin-like activity) (Homo sapiens, UniProt P28074); assay: fluorometric ChT-L assay with Suc-LLVY-AMC, continuous; IC50 […], Ki by Cheng-Prusoff
T1 construct: gene PSMB5; whole human 20S proteasome (Biomol); with other subunits of the 20S proteasome
T1 sequence (P28074 60-263): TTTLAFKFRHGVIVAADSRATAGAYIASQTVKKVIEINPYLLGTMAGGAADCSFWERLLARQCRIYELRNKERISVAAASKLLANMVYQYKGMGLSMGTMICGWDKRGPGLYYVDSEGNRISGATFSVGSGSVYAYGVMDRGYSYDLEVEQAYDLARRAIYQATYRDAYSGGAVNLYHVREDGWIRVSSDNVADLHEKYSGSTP

[2] = target: T1, 20S proteasome β5 subunit (chymotrypsin-like activity); assay: fluorometric ChT-L screening assay, % inhibition at […]; settings: read-out: ChT-L Activity (% Inhibition at 20 μM) ^1
[3] = target: T1, 20S proteasome β5 subunit (chymotrypsin-like activity); assay: fluorometric ChT-L assay with Suc-LLVY-AMC, continuous; IC50 […], Ki by Cheng-Prusoff; remark: listed apart in the source

With `FC(F)(F)C1(Cl)CN1c1ccc2cc3ccccc3cc2c1` (centres unmarked) [compound 21, CTMA 21] the Ki [1] was 1600 ± 130 nM.

In the case of `FC(F)(F)C1(Cl)CN1c1ccc(N2CCOCC2)cc1` (centres unmarked) [compound 23, CTMA 23], the inhibition at 20 µM [2] is reported as 41 ± 1.2%.

`FC(F)(F)C1(Cl)CN1c1ccc(N=Nc2ccccc2)cc1` (centres unmarked) [compound 22, CTMA 22] gave a Ki [3] of 1600 ± 80 nM.

Work on `O=C1CCCN1c1cccc(N2CC2(Cl)C(F)(F)F)c1` (centres unmarked) [compound 25, CTMA 25] yielded an inhibition at 20 µM [2] of 34 ± 1.4%.

With `N#Cc1ccc(N2CC2(Cl)C(F)(F)F)cc1` (centres unmarked) [compound 18, CTMA 18] the inhibition at 20 µM [2] was 37 ± 0.5%.
